Experiments:
Format in all cases: in vivo
[1] = system: laser-induced hypertensive monkeys; experiment: Intraocular pressure reduction in laser-induced hypertensive monkeys; conditions: change from baseline
Procedure: [The source words this procedure for another organism and reports this organism under the same test.] (§1) Compounds such as those described in the above are tested in vivo to measure its ability to reduce intraocular pressure. Compound 1 is tested in normotensive dogs.

normotensive dogs = experiment: Intraocular pressure reduction in normotensive dogs; conditions: change from baseline
Procedure: as §1

[2] = system: lashes and adjacent hairs of patients; experiment: Eyelash/hair growth observed in glaucoma patients treated in one eye; conditions: glaucoma patient treated in only one eye
Source text: In the course of treating patients having glaucoma, treatment may only be appropriate in one eye. […] The lash appearance on the lids of the treated eyes would have appeared quite attractive if it represented a bilateral phenomenon. As a result of its asymmetric nature, the long lashes on one side could be construed as disturbing from a cosmetic standpoint. A systemic examination was preformed as a result of the asymmetric phenomenon. It soon became apparent that this altered appearance was not an isolated finding. […] Definite differences could be identified to varying degrees in the lashes and adjacent hairs of all patients who were taking the drug on a unilateral basis for longer than 6 months.
The changes in the lashes were apparent on gross inspection in several patients once attention was focused on the issue. In those with light colored hair and lashes, the differences were only seen easily with the aid of the high magnification and lighting capabilities of the slit lamp biomicroscope. In the course of glaucoma follow-up examination, attention is generally immediately focused on the eye itself. As a result of the high power magnification needed only one eye is seen at a time and the eye is seen at a high enough power that the lashes are not in focus. […]

Row | Compound | IOP [1] | intraocular pressure (IOP) (normotensive dogs) | lash appearance in treated eye versus non-treated eye [2]
1 | CCCCCC(=O)c1ccc([C@H]2C(=O)C[C@@H](Cl)[C@@H]2C/C=C\CCCC(=O)OCCN2CCOCC2)cc1 [Compound 5] | decreases from baseline | decreases from baseline | –
2 | CCCCCC(O)c1ccc([C@H]2C(O)C[C@@H](Cl)[C@@H]2C/C=C\CCCC(=O)OCCN2CCOCC2)cc1 (stereo partly drawn) [Compound 7] | decreases from baseline | decreases from baseline | –
3 | (Z)-7-[(1R,2S,3R,5R)-5-Chloro-2-(4-hexanoyl-phenyl)-3-hydroxy-cyclopentyl]-hept-5-enoic acid methyl ester [Compound 2] | decreases from baseline | decreases from baseline | –
4 | (Z)-7-{(1R,2S,3R,5R)-5-Chloro-3-hydroxy-2-[4-(1-hydroxy-hexyl)-phenyl]-cyclopentyl}-hept-5-enoic acid methyl ester [Compound 1] | decreases from baseline | decreases from baseline | –
5 | (Z)-7-[(1R,2S,3R,5R)-5-Chloro-2-(4-hexanoyl-phenyl)-3-hydroxy-cyclopentyl]-hept-5-enoic acid [Compound 3] | decreases from baseline | decreases from baseline | –
6 | CCCCCC(O)c1ccc([C@H]2C(=O)C[C@@H](Cl)[C@@H]2C/C=C\CCCC(=O)OCCN2CCOCC2)cc1 (stereo partly drawn) [Compound 6] | decreases from baseline | decreases from baseline | –
7 | CCNC(=O)CCC/C=C\C[C@@H]1[C@@H](/C=C/[C@@H](O)CCc2ccccc2)[C@H](O)C[C@@H]1O [bimatoprost] | – | – | longer, thicker, and fuller
8 | CCCCCC(=O)c1ccc([C@H]2C(O)C[C@@H](Cl)[C@@H]2C/C=C\CCCC(=O)OCCN2CCOCC2)cc1 (stereo partly drawn) [Compound 8] | decreases from baseline | decreases from baseline | –
